The record followed here is PubChem BioAssay (NCI).

Structures are written as SMILES.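 These data come from cells grown in 96-well plates and exposed to compound for 48 hours at five concentrations. GI50 marks 50% less growth. TGI is the concentration that stops growth completely.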 Where only a bound is given, the exact number is not on record here.

The test system of the first experiment is KM12 colon. The experiment can be described thus: inhibition of tumour cell growth, NCI panel, 48 h.
In the case of `COc1ccc(-c2nc3sc4c(c3c(=O)[nH]2)CCCCCC4)cc1`, the GI50 is 1.18 µM and the TGI is > 33.2 µM.

In the case of `CC1(C)CC(=O)c2c(C(F)(F)F)nn(-c3ccc(C(N)=O)c(NC4CCC(OC(=O)CN)CC4)c3)c2C1` (stereo not given), the GI50 is 0.0434 µM and the TGI is > 100 µM.

As for `O=C(NCCCCCCNC(=O)n1cc(F)c(=O)[nH]c1=O)NCCCOCCOCCOCCOCCOCCOCCOCCOCCOCCOCCOCCOCCOCCOCCOCCOCCOCCOCCOCCOCCOCCCNC(=O)C(O)C(O)C(O)C(O)CO` (stereo not given), the TGI was > 100 µM.

Turning to `COc1cc(C2CC(c3ccc4c(c3)OCO4)=NN2C=O)cc(OC)c1OC` (stereo not given), the GI50 was 1.17 µM and the TGI is > 100 µM.

Take `CC1SC2=NC3=C(c4ccccc4C3=O)C(c3ccc(F)cc3)N2C1=O` (stereo not given): the TGI was > 100 µM.

As to `CCCC(=O)OC1C(C(O)CO)OC2OC(C)(C)OC21` (stereo not given), the TGI was > 100 µM.

For the compound `COC(=O)[C@H](C[C@H](Cc1ccccc1)NC(=O)c1csc([C@@H](C[C@H](C(C)C)N(C)C(=O)[C@@H](NC(=O)[C@H]2CCCCN2C)C(C)C)OC(C)=O)n1)NC(=O)OCc1ccccc1`, the GI50 was < 0.0009 µM and the TGI was > 9 µM.

On to `O=C1/C(=C\c2c[nH]c3ccccc23)c2ccccc2N1c1c(Cl)cccc1Cl`, for which the GI50 is 1.84 µM and the TGI was 3.69 µM.

Consider `NNC(=O)/C(=C/c1ccc(Cl)cc1Cl)NC(=O)c1ccccc1`, for which the TGI was > 100 µM.

Turning to `CC1C=C(OC(=O)c2ccccc2)C(=O)C(n2cc(F)c(=O)[nH]c2=O)O1` (stereo not given), the TGI was > 100 µM.

In the case of `Nc1ccccc1C#C/C=C\C#Cc1cccs1`, the GI50 is 5.66 µM and the TGI is 25.6 µM.

As to `COc1ccc2c(c1)cn1c3ccc(O)cc3nc(N)c21`, the GI50 is 0.615 µM and the TGI amounted to 5.7 µM.

In the case of `CCc1ccccc1NC(=O)C(=O)CC(=O)c1sc(Nc2ccccc2)nc1C`, the TGI was > 100 µM.

A further experiment deals with NCI-H460 lung. As to the kind of experiment: inhibition of tumour cell growth, NCI panel, 48 h.
`COc1ccc(-c2nc3sc4c(c3c(=O)[nH]2)CCCCCC4)cc1`: the GI50 was 2.26 µM and the TGI was > 33.2 µM.

Take `CC1(C)CC(=O)c2c(C(F)(F)F)nn(-c3ccc(C(N)=O)c(NC4CCC(OC(=O)CN)CC4)c3)c2C1` (stereo not given): the GI50 is 0.0502 µM and the TGI is > 100 µM.

Consider `O=C(NCCCCCCNC(=O)n1cc(F)c(=O)[nH]c1=O)NCCCOCCOCCOCCOCCOCCOCCOCCOCCOCCOCCOCCOCCOCCOCCOCCOCCOCCOCCOCCOCCOCCCNC(=O)C(O)C(O)C(O)C(O)CO` (stereo not given), for which the TGI was > 100 µM.

Regarding `COc1cc(C2CC(c3ccc4c(c3)OCO4)=NN2C=O)cc(OC)c1OC` (stereo not given), the GI50 was 1.37 µM and the TGI was > 100 µM.

Take `CC1SC2=NC3=C(c4ccccc4C3=O)C(c3ccc(F)cc3)N2C1=O` (stereo not given): the TGI is > 100 µM.

For the compound `CCCC(=O)OC1C(C(O)CO)OC2OC(C)(C)OC21` (stereo not given), the TGI was > 100 µM.

In the case of `COC(=O)[C@H](C[C@H](Cc1ccccc1)NC(=O)c1csc([C@@H](C[C@H](C(C)C)N(C)C(=O)[C@@H](NC(=O)[C@H]2CCCCN2C)C(C)C)OC(C)=O)n1)NC(=O)OCc1ccccc1`, the GI50 was < 0.0009 µM and the TGI is > 9 µM.

On to `O=C1/C(=C\c2c[nH]c3ccccc23)c2ccccc2N1c1c(Cl)cccc1Cl`, for which the GI50 was 1.66 µM and the TGI worked out at 3.37 µM.

For `NNC(=O)/C(=C/c1ccc(Cl)cc1Cl)NC(=O)c1ccccc1`, the TGI is > 100 µM.

For `CC1C=C(OC(=O)c2ccccc2)C(=O)C(n2cc(F)c(=O)[nH]c2=O)O1` (stereo not given), the TGI was > 100 µM.

Consider `Nc1ccccc1C#C/C=C\C#Cc1cccs1`, for which the GI50 was 13.7 µM and the TGI amounted to 42.5 µM.

Take `COc1ccc2c(c1)cn1c3ccc(O)cc3nc(N)c21`: the GI50 was 0.131 µM and the TGI is 14.7 µM.

As to `CCc1ccccc1NC(=O)C(=O)CC(=O)c1sc(Nc2ccccc2)nc1C`, the TGI is > 100 µM.

The test system of the next experiment is NCI-H522 lung. As to the kind of experiment: inhibition of tumour cell growth, NCI panel, 48 h.
Turning to `COc1ccc(-c2nc3sc4c(c3c(=O)[nH]2)CCCCCC4)cc1`, the GI50 is 2.55 µM and the TGI is > 33.2 µM.

As to `CC1(C)CC(=O)c2c(C(F)(F)F)nn(-c3ccc(C(N)=O)c(NC4CCC(OC(=O)CN)CC4)c3)c2C1` (stereo not given), the GI50 is 0.0387 µM and the TGI amounted to 20.1 µM.

Turning to `O=C(NCCCCCCNC(=O)n1cc(F)c(=O)[nH]c1=O)NCCCOCCOCCOCCOCCOCCOCCOCCOCCOCCOCCOCCOCCOCCOCCOCCOCCOCCOCCOCCOCCOCCCNC(=O)C(O)C(O)C(O)C(O)CO` (stereo not given), the TGI is > 100 µM.

In the case of `COc1cc(C2CC(c3ccc4c(c3)OCO4)=NN2C=O)cc(OC)c1OC` (stereo not given), the GI50 is 1.22 µM and the TGI is > 27.6 µM.

Turning to `CC1SC2=NC3=C(c4ccccc4C3=O)C(c3ccc(F)cc3)N2C1=O` (stereo not given), the TGI was > 100 µM.

On to `CCCC(=O)OC1C(C(O)CO)OC2OC(C)(C)OC21` (stereo not given), for which the TGI was > 100 µM.

Turning to `COC(=O)[C@H](C[C@H](Cc1ccccc1)NC(=O)c1csc([C@@H](C[C@H](C(C)C)N(C)C(=O)[C@@H](NC(=O)[C@H]2CCCCN2C)C(C)C)OC(C)=O)n1)NC(=O)OCc1ccccc1`, the GI50 was < 0.0009 µM and the TGI was determined as 0.0525 µM.

Turning to `O=C1/C(=C\c2c[nH]c3ccccc23)c2ccccc2N1c1c(Cl)cccc1Cl`, the GI50 was 1.81 µM and the TGI worked out at 3.56 µM.

In the case of `NNC(=O)/C(=C/c1ccc(Cl)cc1Cl)NC(=O)c1ccccc1`, the TGI is > 100 µM.

`CC1C=C(OC(=O)c2ccccc2)C(=O)C(n2cc(F)c(=O)[nH]c2=O)O1` (stereo not given): the TGI is > 100 µM.

Turning to `Nc1ccccc1C#C/C=C\C#Cc1cccs1`, the GI50 was 6.84 µM and the TGI stood at 31.6 µM.

With `COc1ccc2c(c1)cn1c3ccc(O)cc3nc(N)c21`, the GI50 is 0.111 µM and the TGI is 2.22 µM.

Consider `CCc1ccccc1NC(=O)C(=O)CC(=O)c1sc(Nc2ccccc2)nc1C`, for which the TGI is > 100 µM.

For another experiment, the system named is SNB-75 CNS. The experiment can be described thus: inhibition of tumour cell growth, NCI panel, 48 h.
With `COc1ccc(-c2nc3sc4c(c3c(=O)[nH]2)CCCCCC4)cc1`, the GI50 is 2.2 µM and the TGI worked out at 16.5 µM.

For `CC1(C)CC(=O)c2c(C(F)(F)F)nn(-c3ccc(C(N)=O)c(NC4CCC(OC(=O)CN)CC4)c3)c2C1` (stereo not given), the GI50 is 0.634 µM and the TGI was > 100 µM.

`O=C(NCCCCCCNC(=O)n1cc(F)c(=O)[nH]c1=O)NCCCOCCOCCOCCOCCOCCOCCOCCOCCOCCOCCOCCOCCOCCOCCOCCOCCOCCOCCOCCOCCOCCCNC(=O)C(O)C(O)C(O)C(O)CO` (stereo not given): the TGI is > 100 µM.

With `COc1cc(C2CC(c3ccc4c(c3)OCO4)=NN2C=O)cc(OC)c1OC` (stereo not given), the GI50 is 1.13 µM and the TGI is 5.43 µM.

Turning to `CC1SC2=NC3=C(c4ccccc4C3=O)C(c3ccc(F)cc3)N2C1=O` (stereo not given), the TGI was > 100 µM.

Regarding `CCCC(=O)OC1C(C(O)CO)OC2OC(C)(C)OC21` (stereo not given), the TGI was > 100 µM.

Regarding `COC(=O)[C@H](C[C@H](Cc1ccccc1)NC(=O)c1csc([C@@H](C[C@H](C(C)C)N(C)C(=O)[C@@H](NC(=O)[C@H]2CCCCN2C)C(C)C)OC(C)=O)n1)NC(=O)OCc1ccccc1`, the GI50 is < 0.0009 µM and the TGI was > 9 µM.

As to `O=C1/C(=C\c2c[nH]c3ccccc23)c2ccccc2N1c1c(Cl)cccc1Cl`, the GI50 was 1.68 µM and the TGI worked out at 5.61 µM.

Consider `NNC(=O)/C(=C/c1ccc(Cl)cc1Cl)NC(=O)c1ccccc1`, for which the TGI was > 100 µM.

With `CC1C=C(OC(=O)c2ccccc2)C(=O)C(n2cc(F)c(=O)[nH]c2=O)O1` (stereo not given), the TGI is > 100 µM.

Take `Nc1ccccc1C#C/C=C\C#Cc1cccs1`: the GI50 was 16.8 µM and the TGI came to 61.9 µM.

As to `COc1ccc2c(c1)cn1c3ccc(O)cc3nc(N)c21`, the GI50 was 0.112 µM and the TGI was 2.81 µM.

For `CCc1ccccc1NC(=O)C(=O)CC(=O)c1sc(Nc2ccccc2)nc1C`, the TGI was > 100 µM.

The test system of the next experiment is UACC-257 melanoma. As to the kind of experiment: inhibition of tumour cell growth, NCI panel, 48 h.
On to `COc1ccc(-c2nc3sc4c(c3c(=O)[nH]2)CCCCCC4)cc1`, for which the GI50 was > 33.2 µM and the TGI is > 33.2 µM.

Turning to `CC1(C)CC(=O)c2c(C(F)(F)F)nn(-c3ccc(C(N)=O)c(NC4CCC(OC(=O)CN)CC4)c3)c2C1` (stereo not given), the GI50 is 0.029 µM and the TGI turned out to be 0.0972 µM.

As to `O=C(NCCCCCCNC(=O)n1cc(F)c(=O)[nH]c1=O)NCCCOCCOCCOCCOCCOCCOCCOCCOCCOCCOCCOCCOCCOCCOCCOCCOCCOCCOCCOCCOCCOCCCNC(=O)C(O)C(O)C(O)C(O)CO` (stereo not given), the TGI is > 100 µM.

Consider `COc1cc(C2CC(c3ccc4c(c3)OCO4)=NN2C=O)cc(OC)c1OC` (stereo not given), for which the GI50 is > 20.3 µM and the TGI is > 100 µM.

Turning to `CC1SC2=NC3=C(c4ccccc4C3=O)C(c3ccc(F)cc3)N2C1=O` (stereo not given), the TGI was > 100 µM.

`CCCC(=O)OC1C(C(O)CO)OC2OC(C)(C)OC21` (stereo not given): the TGI is > 100 µM.

Take `COC(=O)[C@H](C[C@H](Cc1ccccc1)NC(=O)c1csc([C@@H](C[C@H](C(C)C)N(C)C(=O)[C@@H](NC(=O)[C@H]2CCCCN2C)C(C)C)OC(C)=O)n1)NC(=O)OCc1ccccc1`: the GI50 is 0.0349 µM and the TGI was 2.78 µM.

`O=C1/C(=C\c2c[nH]c3ccccc23)c2ccccc2N1c1c(Cl)cccc1Cl`: the GI50 is 2.34 µM and the TGI was 4.61 µM.

Consider `NNC(=O)/C(=C/c1ccc(Cl)cc1Cl)NC(=O)c1ccccc1`, for which the TGI was > 100 µM.

In the case of `CC1C=C(OC(=O)c2ccccc2)C(=O)C(n2cc(F)c(=O)[nH]c2=O)O1` (stereo not given), the TGI is > 100 µM.

`Nc1ccccc1C#C/C=C\C#Cc1cccs1`: the GI50 was 23.2 µM and the TGI is > 57.8 µM.

Consider `COc1ccc2c(c1)cn1c3ccc(O)cc3nc(N)c21`, for which the GI50 was 0.0793 µM and the TGI came to 1 µM.

As for `CCc1ccccc1NC(=O)C(=O)CC(=O)c1sc(Nc2ccccc2)nc1C`, the TGI is > 100 µM.
